Assay results: US20220226299A1 (NIPPON CHEMIPHAR CO., LTD., priority 2019, published 2022)

molecular target: T1, human Cav3.2 channels (Homo sapiens, UniProt O95180); assay: T-type calcium blocking action: intracellular calcium (Fluo-4 AM fluorescence) in HEK293 cells steadily expressing human Cav3.2 channels; assay type: cell-based; settings: HEK293 cells expressing human Cav3.2; KCl-stimulated calcium influx, Fluo-4 fluorescence; Tables 1 to 3
T1 construct: human Cav3.2 channel ORF (Open Reading Frame) gene; expressed in transfected cells; host or cells: HEK293 cells (ATCC No. CRL-1573), pcDNA3.1(+) plasmid
Description: T-Type Calcium Blocking Action
(1) Construction of Cells Steadily Expressing Human Cav3.2 Channels
A sequence obtained by adding HindIII site and a kozak sequence (GCCACC) to the 5′-side of human Cav3.2 channel ORF (Open Reading Frame) gene and adding a KpnI site to the 3′-side of the gene, was incorporated into pcDNA3.1(+) (Thermo Fisher Scientific, #V790-20), and the plasmid was introduced into HEK293 cells (ATCC No. CRL-1573) according to the protocol of FuGENE (registered trademark) HD Transfection Reagent (Promega, #E2311).
(2) Method for Measuring Intracellular Calcium Concentration
The cells steadily expressing human Cav3.2 channels produced by testing method (1) were seeded on a 96-well plate (Dulbecco's modified Eagle medium (DMEM) medium containing 10% fetal bovine serum (FBS) was used as a medium). The cells were seeded and cultured for 48 hours under conditions of 37° C. and 5% CO2. Thereafter, the cells were washed with buffer A in order to remove the medium. Each well was treated with 80 μL of a fluorescent dye solution produced by mixing 22 μg of a fluorescent calcium indicator, Fluo-4 AM (Dojindo Laboratories, #F311), 20 μL of DMSO, 1 μL of 10% Pluronic F-127 (Thermo Fisher Scientific, #P6866), and 4 mL of buffer A. The cells were allowed to stand for 45 minutes at room temperature under light-shielded conditions, and then washed with buffer B in order to completely replace the solution. 70 μL of DMSO having the same concentration as that of a test compound as a negative control and 70 μL of a mixture containing 1 μM of a known blocker RQ-00311651 and the test compound as a positive control were each added to each well in a form of being contained in the buffer B. The test compound was dissolved in 100% DMSO and added at a final concentration of 0.1%. Then, the cells were further allowed to stand at room temperature under light-shielded conditions for 15 minutes and placed in a microplate reader EnVision (PerkinElmer). Background fluorescence was measured in each well, and then a 5 μg/mL grammicidin solution was added to buffer B at 10 μL/well. After 90 seconds, baseline fluorescence was measured. Thereafter, 83.8 mM KCl was added to buffer B at 20 μL/well, and an increase in fluorescence caused by calcium influx generated by the stimulus was measured for 10 seconds. A blocking percentage was calculated from a maximum fluorescence increase value from a baseline, a logarithmic value of a compound concentration and blockery activity were plotted, and thereby an IC50 value was calculated. In the measurement, fluorescence at 510 nm that was emitted when the cells were irradiated with excitation light at 485 nm was observed.
Buffer A: 140 mM NaCl, 5 mM KCl, 1 mM MgCl2, 0.5 mM CaCl2, 10 mM Glucose, 10 mM HEPES, pH 7.3
Buffer B: 137.9 mM Choline-Cl, 4.1 mM KCl, 1 mM MgCl2, 0.5 mM CaCl2, 10 mM Glucose, 10 mM HEPES, pH 7.3

T1 sequence (O95180 whole entry): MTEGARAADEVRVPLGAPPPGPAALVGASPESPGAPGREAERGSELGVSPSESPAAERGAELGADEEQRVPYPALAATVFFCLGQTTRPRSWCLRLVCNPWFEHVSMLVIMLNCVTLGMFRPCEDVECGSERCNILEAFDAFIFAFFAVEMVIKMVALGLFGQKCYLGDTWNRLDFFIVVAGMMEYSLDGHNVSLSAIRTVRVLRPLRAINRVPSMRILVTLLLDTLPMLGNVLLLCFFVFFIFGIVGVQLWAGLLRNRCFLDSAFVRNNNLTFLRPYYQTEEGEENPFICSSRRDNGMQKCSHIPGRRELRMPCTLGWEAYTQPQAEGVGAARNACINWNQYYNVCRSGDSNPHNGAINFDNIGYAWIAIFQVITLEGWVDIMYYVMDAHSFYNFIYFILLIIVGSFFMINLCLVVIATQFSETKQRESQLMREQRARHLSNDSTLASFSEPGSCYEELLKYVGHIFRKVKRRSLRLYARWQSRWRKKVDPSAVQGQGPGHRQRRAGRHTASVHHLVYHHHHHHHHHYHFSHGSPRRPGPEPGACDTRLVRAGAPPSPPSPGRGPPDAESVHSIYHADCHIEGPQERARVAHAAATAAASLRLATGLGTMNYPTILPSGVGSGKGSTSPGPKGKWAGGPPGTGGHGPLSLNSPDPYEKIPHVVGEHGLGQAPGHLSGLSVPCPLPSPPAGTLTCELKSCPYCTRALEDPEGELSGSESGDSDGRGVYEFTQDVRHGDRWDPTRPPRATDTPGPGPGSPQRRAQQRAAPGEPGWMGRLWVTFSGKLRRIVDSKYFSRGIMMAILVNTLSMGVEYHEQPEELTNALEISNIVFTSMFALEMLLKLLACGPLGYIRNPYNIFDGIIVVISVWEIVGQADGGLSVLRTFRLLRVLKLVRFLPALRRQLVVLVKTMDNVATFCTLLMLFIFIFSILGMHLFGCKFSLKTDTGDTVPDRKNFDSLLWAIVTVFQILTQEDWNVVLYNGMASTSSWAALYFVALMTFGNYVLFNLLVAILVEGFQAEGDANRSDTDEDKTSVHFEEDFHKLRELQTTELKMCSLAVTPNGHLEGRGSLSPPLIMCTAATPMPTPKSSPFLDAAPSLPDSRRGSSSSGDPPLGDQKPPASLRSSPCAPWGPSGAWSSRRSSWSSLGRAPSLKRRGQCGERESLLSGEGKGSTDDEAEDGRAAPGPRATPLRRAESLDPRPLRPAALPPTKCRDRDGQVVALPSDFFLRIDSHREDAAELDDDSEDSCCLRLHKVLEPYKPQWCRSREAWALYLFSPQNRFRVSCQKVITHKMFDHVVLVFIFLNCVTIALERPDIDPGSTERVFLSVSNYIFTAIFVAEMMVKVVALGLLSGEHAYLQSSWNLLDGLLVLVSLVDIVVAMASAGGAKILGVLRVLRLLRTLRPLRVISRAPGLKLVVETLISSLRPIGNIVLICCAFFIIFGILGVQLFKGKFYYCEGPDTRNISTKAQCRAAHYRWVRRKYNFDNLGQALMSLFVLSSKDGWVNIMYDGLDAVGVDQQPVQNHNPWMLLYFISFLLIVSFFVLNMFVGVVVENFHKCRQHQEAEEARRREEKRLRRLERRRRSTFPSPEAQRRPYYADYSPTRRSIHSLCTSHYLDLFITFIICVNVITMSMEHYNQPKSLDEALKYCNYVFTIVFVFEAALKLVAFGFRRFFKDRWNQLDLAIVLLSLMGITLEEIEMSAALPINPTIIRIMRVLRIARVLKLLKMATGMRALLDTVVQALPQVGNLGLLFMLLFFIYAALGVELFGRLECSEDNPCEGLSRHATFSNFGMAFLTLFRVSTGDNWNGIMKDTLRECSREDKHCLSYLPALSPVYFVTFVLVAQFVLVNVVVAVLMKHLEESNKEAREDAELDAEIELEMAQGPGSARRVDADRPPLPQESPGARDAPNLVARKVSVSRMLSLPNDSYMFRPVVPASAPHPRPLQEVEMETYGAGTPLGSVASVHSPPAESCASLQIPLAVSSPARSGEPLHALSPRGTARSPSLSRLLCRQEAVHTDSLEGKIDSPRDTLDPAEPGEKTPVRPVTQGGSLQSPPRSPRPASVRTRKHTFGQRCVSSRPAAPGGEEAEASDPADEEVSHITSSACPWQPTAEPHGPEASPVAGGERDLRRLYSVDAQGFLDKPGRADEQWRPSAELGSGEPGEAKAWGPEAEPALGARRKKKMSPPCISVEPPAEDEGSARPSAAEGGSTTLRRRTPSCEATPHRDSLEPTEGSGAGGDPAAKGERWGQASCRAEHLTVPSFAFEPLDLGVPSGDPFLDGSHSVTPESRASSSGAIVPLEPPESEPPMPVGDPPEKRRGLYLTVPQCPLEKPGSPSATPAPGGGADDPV

IC50 [nM]	SMILES
380	CC(C)Cc1ccc(C(C)C(=O)N[C@@H]2CCN(c3cncc(C(F)(F)F)c3)C2)cc1 (stereo partly drawn) [Example 17, 2-(4-Isobutylphenyl)-N—((R)-1-(5-(trifluoromethyl)pyridin-3-yl)pyrrolidin-3-yl)propanamide]
90	Cc1ncc(N2CC[C@@H](NC(=O)Cc3ccc(C4CC4)cc3)C2)cc1C(F)(F)F [Example 18, (R)-2-(4-cyclopropylphenyl)-N-(1-(6-methyl-5-(trifluoromethyl)pyridin-3-yl)pyrrolidin-3-yl)acetamide]
3500	CC(C)(O)c1cncc(N2CC[C@@H](NC(=O)Cc3ccc(C4CC4)cc3)C2)c1 [Example 19, (R)-2-(4-cyclopropylphenyl)-N-(1-(5-(2-hydroxypropan-2-yl)pyridin-3-yl)pyrrolidin-3-yl)acetamide]
1200	NC(=O)C1(NC(=O)Cc2ccc(C3CC3)cc2)CCN(c2cncc(C(F)(F)F)c2)C1 (centres unmarked) [Example 21, 3-(2-(4-cyclopropylphenyl)acetamido)-1-(5-(trifluoromethyl)pyridin-3-yl)pyrrolidine-3-carboxyamide]
1600	O=C(Cc1ccc(O)cc1)N[C@@H]1CCN(c2cncc(C(F)(F)F)c2)C1 [Example 22, (R)-2-(4-hydroxyphenyl)-N-(1-(5-(trifluoromethyl)pyridin-3-yl)pyrrolidin-3-yl)acetamide]
150	O=C(Cc1ccc(N2CCS(=O)(=O)CC2)cc1)N[C@@H]1CCN(c2cncc(C(F)(F)F)c2)C1 [Example 23, (R)-2-(4-(1,1-dioxidethiomorpholino)phenyl)-N-(1-(5-(trifluoromethyl)pyridin-3-yl)pyrrolidin-3-yl)acetamide]
720	O=C(N[C@@H]1CCN(c2cncc(C(F)(F)F)c2)C1)C1(c2ccc(Cl)cc2)CC1 [Example 24, (R)-1-(4-chlorophenyl)-N-(1-(5-(trifluoromethyl)pyridin-3-yl)pyrrolidin-3-yl)cyclopropane-1-carboxyamide]
2000	O=C(N[C@@H]1CCN(c2cncc(C(F)(F)F)c2)C1)C(O)c1ccc(Br)cc1 (stereo partly drawn) [Example 25, 2-(4-Bromophenyl)-2-hydroxy-N—((R)-1-(5-(trifluoromethyl)pyridin-3-yl)pyrrolidin-3-yl)acetamide]
150	C[Si](C)(C)c1ccc(CC(=O)N[C@@H]2CCN(c3cncc(C(F)(F)F)c3)C2)cc1 [Example 26, (R)—N-(1-(5-(trifluoromethyl)pyridin-3-yl)pyrrolidin-3-yl)-2-(4-(trimethylsilyl)phenyl)acetamide]
700	CC(C)(O)COc1ccc(CC(=O)N[C@@H]2CCN(c3cncc(C(F)(F)F)c3)C2)cc1 [Example 27, (R)-2-(4-(2-hydroxy-2-methylpropoxy)phenyl)-N-(1-(5-(trifluoromethyl)pyridin-3-yl)pyrrolidin-3-yl)acetamide]
200	O=C(Cc1ccc(C2CC2)cc1)N[C@H]1CN(c2cncc(C(F)(F)F)c2)C[C@@H]1F [Example 28, 2-(4-cyclopropylphenyl)-N-((3S,4S)-4-fluoro-1-(5-(trifluoromethyl)pyridin-3-yl)pyrrolidin-3-yl)acetamide]
40	CN(C)c1ccc(CC(=O)N[C@@H]2CCN(c3cncc(C(F)(F)F)c3)C2)cc1 [Example 29, (R)-2-(4-(dimethylamino)phenyl)-N-(1-(5-(trifluoromethyl)pyridin-3-yl)pyrrolidin-3-yl)acetamide]
650	O=C(Cc1ccc([N+](=O)[O-])cc1)N[C@@H]1CCN(c2cncc(C(F)(F)F)c2)C1 [Example 30, (R)-2-(4-nitrophenyl)-N-(1-(5-(trifluoromethyl)pyridin-3-yl)pyrrolidin-3-yl)acetamide]
210	CC(C)Cc1ccc([C@H](C)C(=O)N[C@@H]2CCN(c3cncc(C(F)(F)F)c3)C2)cc1 [Example 31, (S)-2-(4-isobutylphenyl)-N—((R)-1-(5-(trifluoromethyl)pyridin-3-yl)pyrrolidin-3-yl)propanamide]
150	O=C(Cc1ccc(C(F)(F)F)c(F)c1)N[C@@H]1CCN(c2cncc(C(F)(F)F)c2)C1 [Example 32, (R)-2-(3-fluoro-4-(trifluoromethyl)phenyl)-N-(1-(5-(trifluoromethyl)pyridin-3-yl)pyrrolidin-3-yl)acetamide]
1000	Nc1ccc(CC(=O)N[C@@H]2CCN(c3cncc(C(F)(F)F)c3)C2)cc1 [Example 33, (R)-2-(4-aminophenyl)-N-(1-(5-(trifluoromethyl)pyridin-3-yl)pyrrolidin-3-yl)acetamide]
240	O=C(N[C@@H]1CCN(c2cncc(C(F)(F)F)c2)C1)C1(c2ccc(C(F)(F)F)cc2)CC1 [Example 34, (R)-1-(4-(trifluoromethyl)phenyl)-N-(1-(5-(trifluoromethyl)pyridin-3-yl)pyrrolidin-3-yl)cyclopropane-1-carboxyamide]
630	CC(=O)Nc1ccc(CC(=O)N[C@@H]2CCN(c3cncc(C(F)(F)F)c3)C2)cc1 [Example 35, (R)-2-(4-acetamidophenyl)-N-(1-(5-(trifluoromethyl)pyridin-3-yl)pyrrolidin-3-yl)acetamide]
980	N#CC1(NC(=O)Cc2ccc(C3CC3)cc2)CCN(c2cncc(C(F)(F)F)c2)C1 (centres unmarked) [Example 36, N-(3-cyano-1-(5-(trifluoromethyl)pyridin-3-yl)pyrrolidin-3-yl)-2-(4-cyclopropylphenyl)acetamide]
27	COC(=O)C1(NC(=O)Cc2ccc3cc[nH]c3c2)CCN(c2cncc(C(F)(F)F)c2)C1 (centres unmarked) [Example 37, Methyl 3-(2-(1H-indol-6-yl)acetamido)-1-(5-(trifluoromethyl)pyridin-3-yl)pyrrolidine-3-carboxylate]
35	COC(=O)C1(NC(=O)Cc2ccc(C(F)(F)F)cc2)CCN(c2cncc(C(F)(F)F)c2)C1 (centres unmarked) [Example 38, Methyl 3-(2-(4-(trifluoromethyl)phenyl)acetamido)-1-(5-(trifluoromethyl)pyridin-3-yl)pyrrolidine-3-carboxylate]
22	O=C(N[C@@H]1CCN(c2cncc(C(F)(F)F)c2)C1)[C@H]1C[C@@H]1c1nc2ccccc2o1 [Example 39, (1S,2S)-2-(benzo[d]oxazol-2-yl)-N—((R)-1-(5-(trifluoromethyl)pyridin-3-yl)pyrrolidin-3-yl)cyclopropane-1-carboxyamide]
300	O=C(Cc1ccc(N2CCOCC2)cc1)N[C@@H]1CCN(c2nc(C(F)(F)F)cs2)C1 [Example 40, (R)-2-(4-morpholinophenyl)-N-(1-(4-(trifluoromethyl)thiazol-2-yl)pyrrolidin-3-yl)acetamide]
25	COC(=O)C1(NC(=O)Cc2ccc(N3CCOCC3)cc2)CCN(c2cncc(C(F)(F)F)c2)C1 (centres unmarked) [Example 41, Methyl 3-(2-(4-morpholinophenyl)acetamido)-1-(5-(trifluoromethyl)pyridin-3-yl)pyrrolidine-3-carboxylate]
250	O=C(Cc1ccc(N2CCOCC2)cc1)N[C@@H]1CCN(c2ccc(C(F)(F)F)nc2)C1 [Example 42, (R)-2-(4-morpholinophenyl)-N-(1-(6-(trifluoromethyl)pyridin-3-yl)pyrrolidin-3-yl)acetamide]
190	CCC1(NC(=O)Cc2ccc(C3CC3)cc2)CCN(c2cncc(C(F)(F)F)c2)C1 (centres unmarked) [Example 43, 2-(4-cyclopropylphenyl)-N-(3-ethyl-1-(5-(trifluoromethyl)pyridin-3-yl)pyrrolidin-3-yl)acetamide]
